Values quoted from earlier work as cited in patent US20230339856A1, “NOVEL PHARMACOLOGICAL CHAPERONE COMPOUNDS OF HUMAN ACID ALPHA-GLUCOSIDASE AND THE THERAPEUTIC USE THEREOF” (UNIVERSITÉ GRENOBLE ALPES, priority 2020, published 2023).

What was measured:
[1] = target: rhGAA (Homo sapiens (Human), UniProt P10253); settings: literature value, cited from earlier work; for rhGAA ΔTm: pH 4.3, measured at [compound]=10 times the value of Ki
[2] = target: α-glucosidase II of the endoplasmic reticulum (GANAB) (Homo sapiens (Human), UniProt Q14697); settings: literature value; cited from earlier work
Sequence of α-glucosidase II of the endoplasmic reticulum (GANAB) (Q14697 29-944): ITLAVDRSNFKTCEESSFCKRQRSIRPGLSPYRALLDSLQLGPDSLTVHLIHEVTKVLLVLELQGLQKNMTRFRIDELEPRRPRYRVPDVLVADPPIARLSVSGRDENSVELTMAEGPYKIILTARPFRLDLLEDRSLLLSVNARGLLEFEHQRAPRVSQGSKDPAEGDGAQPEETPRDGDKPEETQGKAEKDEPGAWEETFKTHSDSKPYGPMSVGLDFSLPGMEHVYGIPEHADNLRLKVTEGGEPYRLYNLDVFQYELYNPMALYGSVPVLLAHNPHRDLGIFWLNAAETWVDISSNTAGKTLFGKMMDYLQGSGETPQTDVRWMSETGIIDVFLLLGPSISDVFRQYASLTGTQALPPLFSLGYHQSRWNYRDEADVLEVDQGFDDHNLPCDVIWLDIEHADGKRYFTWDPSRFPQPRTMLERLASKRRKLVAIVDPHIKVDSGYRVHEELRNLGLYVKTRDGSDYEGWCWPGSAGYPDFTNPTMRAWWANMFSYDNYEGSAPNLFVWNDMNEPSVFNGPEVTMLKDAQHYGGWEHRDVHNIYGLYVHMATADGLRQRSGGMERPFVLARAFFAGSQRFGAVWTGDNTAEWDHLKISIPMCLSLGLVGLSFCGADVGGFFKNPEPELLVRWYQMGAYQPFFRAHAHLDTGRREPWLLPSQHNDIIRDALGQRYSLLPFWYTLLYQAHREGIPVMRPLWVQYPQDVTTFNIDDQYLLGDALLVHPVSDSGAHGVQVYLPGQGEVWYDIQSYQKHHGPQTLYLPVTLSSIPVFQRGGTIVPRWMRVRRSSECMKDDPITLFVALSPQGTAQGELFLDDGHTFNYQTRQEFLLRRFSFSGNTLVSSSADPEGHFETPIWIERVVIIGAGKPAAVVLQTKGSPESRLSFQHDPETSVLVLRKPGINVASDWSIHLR
Sequence of α-glucosidase II of the endoplasmic reticulum (GANAB) (P14314 15-528 partner): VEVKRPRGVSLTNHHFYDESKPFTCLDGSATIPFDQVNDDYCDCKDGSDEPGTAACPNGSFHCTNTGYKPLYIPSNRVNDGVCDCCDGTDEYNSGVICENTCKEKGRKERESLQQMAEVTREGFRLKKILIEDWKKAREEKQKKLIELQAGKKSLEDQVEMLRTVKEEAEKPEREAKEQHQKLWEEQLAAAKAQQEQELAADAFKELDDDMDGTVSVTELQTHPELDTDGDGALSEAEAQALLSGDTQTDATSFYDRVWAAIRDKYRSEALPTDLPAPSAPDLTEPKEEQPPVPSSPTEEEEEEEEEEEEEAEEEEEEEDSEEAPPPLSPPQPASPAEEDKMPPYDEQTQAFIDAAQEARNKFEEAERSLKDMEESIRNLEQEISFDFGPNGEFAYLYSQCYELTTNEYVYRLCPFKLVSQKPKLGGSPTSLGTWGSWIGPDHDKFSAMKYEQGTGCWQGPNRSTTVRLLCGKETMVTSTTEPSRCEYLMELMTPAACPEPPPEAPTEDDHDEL

Compound	rhGAA ΔTm [1]	rhGAA ΔTm at pH 7.4 [1]	IC50 [2]
OC[C@H]1NC[C@H](O)[C@@H](O)[C@@H]1O [DNJ, deoxynojirimycin]	2.7 (pH 4.3)*^b ° C.	15^c^ ° C.	
CCCCN1C[C@H](O)[C@@H](O)[C@H](O)[C@H]1CO [NB-DNJ]	6.2 (pH 4.3)*^b ° C.	12^d^ ° C.	15 µM
